Results published in patent publication US10906915B2, “Substituted pyrazoloazepin-4-ones and their use as phosphodiesterase inhibitors” (LEO Pharma A/S, priority 2016, dated 2021).
Where two headings read alike, the source gives them in different places.

Biological target: human PDE4D catalytic domain (UniProt no. Q08499) (Homo sapiens (Human), UniProt Q08499)
Assay: PDE4 assay (TR-FRET, FAM-cAMP cleavage)
Format: biochemical
Conditions: read-out: PDE4 IC50 range
Procedure: The human PDE4D catalytic domain (UniProt no. Q08499 [[…]]) was incubated with a mixture of non-labelled cAMP (cyclic adenosine monophosphate) and fluorescein amidite (FAM) conjugated cAMP and titrated test or reference compound. Following brief incubation the enzymatic reaction was stopped by addition of binding buffer containing nanoparticles with immobilized trivalent metal ions capable of binding 1) AMP phospho groups and 2) terbium (Tb) donor fluorophores. Subsequent excitation of the Tb donor triggers time-resolved FRET to adjacent FAM acceptor molecules resulting in light emission. In the presence of a PDE4 inhibitor, AMP generation was reduced resulting in a lower fluorescence signal. The cAMP phosphodiester is not bound by the detection system.
The results were calculated as the molar concentrations resulting in 50% inhibition of the substrate cleavage compared to controls samples, and are expressed as a range of IC50 (nM).

[1] = human PDE4D catalytic domain, molar concentration giving 50% inhibition of substrate cleavage

Chain of human PDE4D catalytic domain (Q08499 380-740 limits assumed): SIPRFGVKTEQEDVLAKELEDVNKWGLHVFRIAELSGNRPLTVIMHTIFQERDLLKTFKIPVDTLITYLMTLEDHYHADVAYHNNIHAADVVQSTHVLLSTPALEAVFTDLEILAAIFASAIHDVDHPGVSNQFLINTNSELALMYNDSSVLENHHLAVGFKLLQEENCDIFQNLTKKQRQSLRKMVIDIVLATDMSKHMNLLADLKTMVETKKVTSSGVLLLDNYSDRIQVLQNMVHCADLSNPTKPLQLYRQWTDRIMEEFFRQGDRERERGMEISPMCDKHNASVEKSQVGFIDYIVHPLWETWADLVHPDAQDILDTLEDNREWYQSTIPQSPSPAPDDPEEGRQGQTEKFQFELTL

SMILES | IC50 [1] [nM] | IC50 [nM]
CCc1nn(C[C@@H](C)COC(=O)c2ccc(OC)cc2C(F)(F)F)c2c1C(=O)NCC1(CCOCC1)C2 [Example 229, [(2R)-3-(3-ethyl-4-oxo-spiro[6,8-dihydro-5H-pyrazolo[4,3-c]azepine-7,4′-tetrahydropyran]-1-yl)-2-methyl-propyl] 4-methoxy-2-(trifluoromethyl)benzoate] | < 100 | –
CCc1nn(C[C@@H](C)COC(=O)c2cc(OC)cc(C(F)(F)F)c2)c2c1C(=O)NCC1(CCOCC1)C2 [Example 232, [(2R)-3-(3-ethyl-4-oxo-spiro[6,8-dihydro-5H-pyrazolo[4,3-c]azepine-7,4′-tetrahydropyran]-1-yl)-2-methyl-propyl] 3-methoxy-5-(trifluoromethyl)benzoate] | < 100 | –
CCc1nn(C[C@@H](C)COC(=O)c2ccc(OC)cc2F)c2c1C(=O)NCC1(CCOCC1)C2 [Example 189, [(2R)-3-(3-ethyl-4-oxo-spiro[6,8-dihydro-5H-pyrazolo[4,3-c]azepine-7,4′-tetrahydropyran]-1-yl)-2-methyl-propyl] 2-fluoro-4-methoxy-benzoate] | < 100 | –
CCc1nn(C[C@@H](C)COC(=O)c2cccc(C(=O)N3CCOCC3)c2)c2c1C(=O)NCC1(CCOCC1)C2 [Example 271, [(2R)-3-(3-ethyl-4-oxo-spiro[6,8-dihydro-5H-pyrazolo[4,3-c]azepine-7,4′-tetrahydropyran]-1-yl)-2-methyl-propyl] 3-(morpholine-4-carbonyl)benzoate] | – | < 100
CCc1nn(CCCCOC(=O)c2ccc(S(C)(=O)=O)cc2)c2c1C(=O)NCC1(CCOCC1)C2 [Example 370, 4-(3-ethyl-4-oxo-spiro[6,8-dihydro-5H-pyrazolo[4,3-c]azepine-7,4′-tetrahydropyran]-1-yl)butyl 4-methylsulfonylbenzoate] | – | 100 to 500
CCc1nn(CCCOC(=O)c2ccc(S(=O)(=O)NC)cc2)c2c1C(=O)NCC1(CCOCC1)C2 [Example 117, 3-(3-ethyl-4-oxo-spiro[6,8-dihydro-5H-pyrazolo[4,3-c]azepine-7,4′-tetrahydropyran]-1-yl)propyl 4-(methylsulfamoyl) benzoate] | < 100 | –
CCc1nn(CCCOC(=O)c2cc(F)cc(OC)c2)c2c1C(=O)NCC1(CCOCC1)C2 [Example 63, 3-(3-ethyl-4-oxo-spiro[6,8-dihydro-5H-pyrazolo[4,3-c]azepine-7,4′-tetrahydropyran]-1-yl)propyl 3-fluoro-5-methoxy-benzoate] | < 100 | –
CCc1nn(C[C@H](C)COC(=O)c2ccc(C)cc2)c2c1C(=O)NCC1(CCOCC1)C2 [Example 275, [(2S)-3-(3-ethyl-4-oxo-spiro[6,8-dihydro-5H-pyrazolo[4,3-c]azepine-7,4′-tetrahydropyran]-1-yl)-2-methyl-propyl] 4-methylbenzoate] | – | < 100
CCc1nn(C[C@@H](C)COC(=O)c2cccc(C(=O)N3CCNCC3)c2)c2c1C(=O)NCC1(CCOCC1)C2 [Example 270, [(2R)-3-(3-ethyl-4-oxo-spiro[6,8-dihydro-5H-pyrazolo[4,3-c]azepine-7,4′-tetrahydropyran]-1-yl)-2-methyl-propyl] 3-(piperazine-1-carbonyl)benzoate] | – | < 100
CCc1nn(CC(C)(C)COC(=O)c2ccc(C(=O)N3CCOCC3)cc2)c2c1C(=O)NCC1(CCOCC1)C2 [Example 336, [3-(3-ethyl-4-oxo-spiro[6,8-dihydro-5H-pyrazolo[4,3-c]azepine-7,4′-tetrahydropyran]-1-yl)-2,2-dimethyl-propyl] 4-(morpholine-4-carbonyl)benzoate] | – | < 100
CCc1nn(CC2(COC(=O)c3ccc(C)cc3)COC2)c2c1C(=O)NCC1(CCOCC1)C2 [Example 357, [3-[(3-ethyl-4-oxo-spiro[6,8-dihydro-5H-pyrazolo[4,3-c]azepine-7,4′-tetrahydropyran]-1-yl)methyl]oxetan-3-yl]methyl 4-methylbenzoate] | – | < 100
CCc1nn(CCCOC(=O)c2ccc(C)cc2C)c2c1C(=O)NCC1(CCOCC1)C2 [Example 27, 3-(3-ethyl-4-oxo-spiro[6,8-dihydro-5H-pyrazolo[4,3-c]azepine-7,4′-tetrahydropyran]-1-yl)propyl 2,4-dimethylbenzoate] | < 100 | –
CCc1nn(CCCOC(=O)c2ccc(C)cc2F)c2c1C(=O)NCC1(CCOCC1)C2 [Example 33, 3-(3-ethyl-4-oxo-spiro[6,8-dihydro-5H-pyrazolo[4,3-c]azepine-7,4′-tetrahydropyran]-1-yl)propyl 2-fluoro-4-methyl-benzoate] | < 100 | –
CCc1nn(CC(C)(C)COC(=O)c2cc(F)cc(C(F)(F)F)c2)c2c1C(=O)NCC1(CCOCC1)C2 [Example 310, [3-(3-ethyl-4-oxo-spiro[6,8-dihydro-5H-pyrazolo[4,3-c]azepine-7,4′-tetrahydropyran]-1-yl)-2,2-dimethyl-propyl] 3-fluoro-5-(trifluoromethyl)benzoate] | – | < 100
CCc1nn(CC(C)(C)COC(=O)c2ccc(C(=O)NC)cc2)c2c1C(=O)NCC1(CCOCC1)C2 [Example 329, [3-(3-ethyl-4-oxo-spiro[6,8-dihydro-5H-pyrazolo[4,3-c]azepine-7,4′-tetrahydropyran]-1-yl)-2,2-dimethyl-propyl] 4-(methylcarbamoyl)benzoate] | – | < 100
CCc1nn(CCCOC(=O)c2ccc(F)c(OC)c2)c2c1C(=O)NCC1(CCOCC1)C2 [Example 65, 3-(3-ethyl-4-oxo-spiro[6,8-dihydro-5H-pyrazolo[4,3-c]azepine-7,4′-tetrahydropyran]-1-yl)propyl 4-fluoro-3-methoxy-benzoate] | < 100 | –
CCc1nn(CCCCOC(=O)c2ccc(C(C)=O)cc2)c2c1C(=O)NCC1(CCOCC1)C2 [Example 368, 4-(3-ethyl-4-oxo-spiro[6,8-dihydro-5H-pyrazolo[4,3-c]azepine-7,4′-tetrahydropyran]-1-yl)butyl 4-acetylbenzoate] | – | 100 to 500
CCc1nn(CCCOC(=O)C2CC(O)C2)c2c1C(=O)NCC1(CCOCC1)C2 (stereo not shown) [Example 10, 3-(3-ethyl-4-oxo-spiro[6,8-dihydro-5H-pyrazolo[4,3-c]azepine-7,4′-tetrahydropyran]-1-yl)propyl 3-hydroxycyclobutane-carboxylate] | 100 to 500 | –
CCc1nn(CCCOC(=O)CCOC)c2c1C(=O)NCC1(CCOCC1)C2 [Example 8, 3-(3-ethyl-4-oxo-spiro[6,8-dihydro-5H-pyrazolo[4,3-c]azepine-7,4′-tetrahydropyran]-1-yl)propyl 3-methoxypropanoate] | > 500 | –
CCc1nn(CCCOC(=O)c2ccc(S(=O)(=O)C(C)C)cc2)c2c1C(=O)NCC1(CCOCC1)C2 [Example 130, 3-(3-ethyl-4-oxo-spiro[6,8-dihydro-5H-pyrazolo[4,3-c]azepine-7,4′-tetrahydropyran]-1-yl)propyl 4-isopropylsulfonylbenzoate] | < 100 | –
CCc1nn(CCCOC(=O)c2ccccc2C(F)(F)F)c2c1C(=O)NCC1(CCOCC1)C2 [Example 95, 3-(3-ethyl-4-oxo-spiro[6,8-dihydro-5H-pyrazolo[4,3-c]azepine-7,4′-tetrahydropyran]-1-yl)propyl 2-(trifluoromethyl)benzoate] | < 100 | –
CCc1nn(C[C@H](C)COC(=O)c2ccccc2)c2c1C(=O)NCC1(CCOCC1)C2 [Example 274, [(2S)-3-(3-ethyl-4-oxo-spiro[6,8-dihydro-5H-pyrazolo[4,3-c]azepine-7,4′-tetrahydropyran]-1-yl)-2-methyl-propyl] benzoate] | – | < 100
